The values below come from PubChem BioAssay (NCI).

Some test systems named below: SW-620 colon; LOX IMVI melanoma; CCRF-CEM leukemia; 786-0 renal; ACHN renal; BT-549 breast; PC-3 prostate; HT29 colon; HOP-92 NSCLC; U251 CNS.
What all share (test): DTP human tumour cell line panel, 48 h

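Cultured in 96-well plates, cells were exposed to test compound for 48 hours across five concentrations. Here, GI50 denotes the concentration required for 50% inhibition of growth. TGI marks complete inhibition of growth.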 Where only a bound is given, the exact number is not on record here.

On to `C[n+]1cc2cc3c(cc2c2ccccc21)OCO3`, for which the GI50 (commonly the concentration that inhibits growth by half) in the assay on SW-620 colon is 4.52 µM; with LOX IMVI melanoma it was 9.11 µM; with CCRF-CEM leukemia, 8.71 µM; in the assay on 786-0 renal, 12.4 µM; in the assay with ACHN renal it was 41.7 µM; with BT-549 breast it was 2.95 µM. The GI50 in the assay with PC-3 prostate was 3.12 µM; with HT29 colon, 3.77 µM; in the assay on HOP-92 NSCLC, 2.77 µM; with U251 CNS it was 1.33 µM. The TGI (usually the concentration at which net growth stops) in the assay on SW-620 colon is greater than 100 µM; in the assay on LOX IMVI melanoma, 53.8 µM; with CCRF-CEM leukemia, greater than 100 µM; in the assay on 786-0 renal, greater than 100 µM; in the assay with ACHN renal, greater than 100 µM; with BT-549 breast it was 16.3 µM. The TGI in the assay on PC-3 prostate amounted to 26.4 µM; with HT29 colon it was 23 µM; in the assay with HOP-92 NSCLC, 23.8 µM; in the assay with U251 CNS, 11.3 µM.

Turning to `C/C(=C1/N=C(c2ccccc2)OC1=O)c1ccccc1`, the TGI with SW-620 colon, in the assay on LOX IMVI melanoma, in the assay on CCRF-CEM leukemia, in the assay with 786-0 renal, in the assay on ACHN renal and in the assay with BT-549 breast was greater than 100 µM in each case. In addition, the TGI in the assay with PC-3 prostate, with HT29 colon, in the assay with HOP-92 NSCLC and with U251 CNS was greater than 100 µM in each case.

Take `COc1cc2oc(-c3cccc(C(=O)Nc4ccc(C)cc4)c3)cc(=O)c2c(OC)c1OC`: the GI50 in the assay with SW-620 colon was 4.73 µM; with LOX IMVI melanoma, 0.32 µM; in the assay with CCRF-CEM leukemia, 4.38 µM; in the assay with 786-0 renal, 2.06 µM; with ACHN renal, 2.69 µM; in the assay on BT-549 breast, 1.71 µM. The GI50 is 3.49 µM in the assay with PC-3 prostate, 2.55 µM in the assay with HT29 colon, 1.55 µM with HOP-92 NSCLC and 3.26 µM in the assay on U251 CNS. Besides, the TGI in the assay with SW-620 colon was greater than 100 µM; in the assay on LOX IMVI melanoma, 3.97 µM; with CCRF-CEM leukemia, greater than 100 µM; in the assay on 786-0 renal, 6.11 µM; in the assay with ACHN renal, greater than 100 µM; in the assay with BT-549 breast, 54.5 µM. Besides, the TGI in the assay on PC-3 prostate is greater than 100 µM; with HT29 colon it was greater than 100 µM; in the assay on HOP-92 NSCLC it was 5.46 µM; in the assay with U251 CNS it was greater than 100 µM.

`CC(=O)N1N=C(c2ccc(Nc3nc(Nc4ccc(F)cc4)nc(Nc4ccc(Cl)cc4)n3)cc2)CC1c1ccc(N(C)C)cc1` (stereo not given): the GI50 was 13.3 µM in the assay on SW-620 colon; 3.85 µM with LOX IMVI melanoma; 5.23 µM in the assay with CCRF-CEM leukemia; 3.65 µM with 786-0 renal; 4.03 µM in the assay on ACHN renal; 5.05 µM in the assay with BT-549 breast. Further, the GI50 in the assay with PC-3 prostate is 3.18 µM; with HT29 colon it was 3.58 µM; in the assay on HOP-92 NSCLC it was 2.87 µM; in the assay with U251 CNS, 4.2 µM. For the same compound, the TGI was 56.8 µM in the assay on SW-620 colon; 12.8 µM with LOX IMVI melanoma; greater than 100 µM in the assay on CCRF-CEM leukemia; 13.7 µM in the assay with 786-0 renal; greater than 58.4 µM in the assay with ACHN renal; 17.5 µM with BT-549 breast. Further, the TGI in the assay with PC-3 prostate was greater than 64.8 µM; with HT29 colon, greater than 75.9 µM; in the assay on HOP-92 NSCLC, 19.1 µM; with U251 CNS, 35.7 µM.

`CCOC(=O)Nc1ccc(C(=O)/C=C/c2ccccc2)cc1`: the GI50 was 19.2 µM in the assay on SW-620 colon; 8.7 µM in the assay with LOX IMVI melanoma; 36.9 µM with CCRF-CEM leukemia; 26.3 µM in the assay with 786-0 renal; 22.2 µM with ACHN renal; 26.5 µM in the assay on BT-549 breast. For the same compound, the GI50 in the assay with PC-3 prostate is 30.9 µM; with HT29 colon, 10.1 µM; with HOP-92 NSCLC, 11.2 µM; in the assay on U251 CNS it was 12.6 µM. Also, the TGI in the assay with SW-620 colon is greater than 100 µM; with LOX IMVI melanoma it was 33.1 µM; with CCRF-CEM leukemia it was greater than 100 µM; with 786-0 renal it was 81.5 µM; in the assay on ACHN renal it was 52.3 µM; in the assay with BT-549 breast, 67.8 µM. The TGI was greater than 100 µM in the assay on PC-3 prostate, greater than 100 µM with HT29 colon, 66.5 µM with HOP-92 NSCLC and 30.4 µM with U251 CNS.

As for `O=C(NCCNC(=O)c1ccc(F)cc1)Nc1ccc(-n2cc(-c3ccncc3)c(-c3ccc(Cl)c(O)c3)n2)cc1`, the GI50 in the assay with SW-620 colon is 0.43 µM; in the assay with LOX IMVI melanoma it was 0.425 µM; in the assay with CCRF-CEM leukemia, 0.336 µM; with 786-0 renal it was 0.997 µM; in the assay on ACHN renal it was 2.32 µM; in the assay with BT-549 breast, 0.338 µM. Also, the GI50 with PC-3 prostate was 0.39 µM; in the assay on HT29 colon it was 0.377 µM; with HOP-92 NSCLC, 0.465 µM; in the assay with U251 CNS, 0.391 µM. The TGI with SW-620 colon was greater than 100 µM; in the assay on LOX IMVI melanoma, 2.49 µM; in the assay on CCRF-CEM leukemia it was greater than 100 µM; in the assay with 786-0 renal, 5.77 µM; in the assay with ACHN renal it was 9.64 µM; with BT-549 breast it was 2.91 µM. The TGI with PC-3 prostate was 8.21 µM; in the assay on HT29 colon, 1.41 µM; in the assay on HOP-92 NSCLC, 5.23 µM; in the assay on U251 CNS, 2.64 µM.

In the case of `O=C(c1ccccc1)c1ccc(O)c2ncccc12`, the GI50 with SW-620 colon is 4.07 µM; with LOX IMVI melanoma it was 1.87 µM; in the assay on CCRF-CEM leukemia, 3.64 µM; in the assay on 786-0 renal, 5.09 µM; with ACHN renal it was 3.46 µM; in the assay on BT-549 breast, 5.96 µM. In addition, the GI50 in the assay on PC-3 prostate is 4.36 µM; in the assay on HT29 colon, 10.1 µM; in the assay with HOP-92 NSCLC, 2.89 µM; in the assay with U251 CNS, 5.93 µM. Also, the TGI is 17.9 µM with SW-620 colon; 13.1 µM with LOX IMVI melanoma; greater than 100 µM in the assay on CCRF-CEM leukemia; 26.5 µM with 786-0 renal; 15.7 µM in the assay on ACHN renal; 68.5 µM with BT-549 breast. The TGI is 97.6 µM with PC-3 prostate, greater than 100 µM with HT29 colon, 16.5 µM in the assay on HOP-92 NSCLC and 26.2 µM with U251 CNS.

Turning to `COc1ccc(C2CC(c3cccc(OC)c3)=NN2C(=O)c2cc(OC)c(OC)c(OC)c2)cc1` (stereo not given), the GI50 in the assay with SW-620 colon was 0.881 µM; with LOX IMVI melanoma, 4.26 µM; with CCRF-CEM leukemia it was 1.84 µM; in the assay on 786-0 renal, 2.25 µM; in the assay on ACHN renal, 5.54 µM; in the assay on BT-549 breast, 2.05 µM. The GI50 with PC-3 prostate is 0.882 µM; in the assay on HT29 colon it was 0.507 µM; with HOP-92 NSCLC, 1.04 µM; in the assay on U251 CNS, 3.04 µM. The TGI was greater than 100 µM with SW-620 colon; greater than 100 µM with LOX IMVI melanoma; greater than 29.6 µM in the assay with CCRF-CEM leukemia; greater than 100 µM in the assay on 786-0 renal; greater than 100 µM with ACHN renal; greater than 100 µM in the assay on BT-549 breast. The TGI in the assay with PC-3 prostate, with HT29 colon, in the assay with HOP-92 NSCLC and in the assay on U251 CNS was greater than 100 µM in each case.
